# pEC50: −log10 of the molar value.
# Target: human GPR40 receptor (Homo sapiens, UniProt O14842)
# Assay: IP1 accumulation measurements using the IPOne assay system
# Assay type: cell-based
# Conditions: 1321N1 cells stably expressing human GPR40; stimulation 1 h at 37° C.
# Procedure: IP1 accumulation measurements using the IPOne assay system—1321N1 cells stably expressing human GPR40 receptor (Euroscreen, Belgium) are seeded 24 h before the assay in white 384-well plates in culture medium containing 10% FCS, 1% Na-Pyruvate and 400 μg/mL G418. IP1 is assayed according to the manufacturer's description (Cisbio Bioassays, France). In brief, the assay is started by substitution of the culture medium by stimulation buffer (Hepes 10 mM, CaCl2 1 mM, MgCl2 0.5 mM, KCl 4.2 mM, NaCl 146 mM, glucose 5.5 mM and LiCl 50 mM, pH 7.4). Cells are stimulated for 1 h at 37° C., 5% CO2 by addition of the compounds that are diluted in stimulation buffer containing LiCl. Assays are stopped by adding HTRF-conjugates (IP1-d2 and Anti-IP1 cryptate Tb) and lysis buffer, provided by the manufacturer. After an incubation time of 1 h at room temperature plates are measured using an EnVision™, Perkin Elmer. The obtained fluorescence ratios at 665/615 […] are then used to calculate the pEC50 values using Assay Explorer 3.3 Software (Accelrys, Inc.) by interpolation using an IP1 reference curve and subsequent sigmoidal curve fitting allowing for a variable hill slope.
# Sequence of human GPR40 receptor (O14842 whole entry): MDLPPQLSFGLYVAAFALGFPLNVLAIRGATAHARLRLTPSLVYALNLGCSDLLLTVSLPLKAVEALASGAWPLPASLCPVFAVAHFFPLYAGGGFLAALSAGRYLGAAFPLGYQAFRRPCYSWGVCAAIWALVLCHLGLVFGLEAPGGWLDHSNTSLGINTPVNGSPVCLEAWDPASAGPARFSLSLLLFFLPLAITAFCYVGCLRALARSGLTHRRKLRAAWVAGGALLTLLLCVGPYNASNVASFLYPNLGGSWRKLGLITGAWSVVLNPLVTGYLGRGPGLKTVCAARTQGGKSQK
row,Compound,pEC50
1,"O=C(O)C[C@@H]1COc2cc(O[C@@H]3CCc4c(Oc5ncc(F)cn5)ccc(F)c43)ccc21 [Example 33, {(S)-6-[(R)-7-Fluoro-4-(5-fluoro-pyrimid-2-yloxy)-indan-1-yloxy]-2,3-dihydro-benzofuran-3-yl}-acetic acid]",7.51
2,"COc1ccc(Oc2ccc(F)c3c2CC[C@H]3Oc2ccc3c(c2)OC[C@H]3CC(=O)O)cn1 [Example 34, {(S)-6-[(R)-7-Fluoro-4-(2-methoxy-pyrid-5-yloxy)-indan-1-yloxy]-2,3-dihydro-benzofuran-3-yl}-acetic acid]",8.30
3,"COc1ncc(Oc2ccc(F)c3c2CC[C@H]3Oc2ccc3c(c2)OC[C@H]3CC(=O)O)cn1 [Example 35, {(S)-6-[(R)-7-Fluoro-4-(2-methoxy-pyrimid-5-yloxy)-indan-1-yloxy]-2,3-dihydro-benzofuran-3-yl}-acetic acid]",7.10
4,"COc1cc(Oc2ccc(F)c3c2CC[C@H]3Oc2ccc3c(c2)OC[C@H]3CC(=O)O)ccn1 [Example 36, {(S)-6-[(R)-7-Fluoro-4-(2-methoxy-pyrid-4-yloxy)-indan-1-yloxy]-2,3-dihydro-benzofuran-3-yl}-acetic acid]",8.40
5,"COc1cc(Oc2ccc(F)c3c2CC[C@H]3Oc2ccc3c(c2)OC[C@H]3CC(=O)O)ccc1C#N [Example 37, {(S)-6-[(R)-4-(4-Cyano-3-methoxy-phenoxy)-7-fluoro-indan-1-yloxy]-2,3-dihydro-benzofuran-3-yl}-acetic acid]",8.30
6,"Cn1ccc2cc(Oc3ccc(F)c4c3CC[C@H]4Oc3ccc4c(c3)OC[C@H]4CC(=O)O)ccc21 [Example 38, {(S)-6-[(R)-7-Fluoro-4-(1-methyl-1H-indol-5-yloxy)-indan-1-yloxy]-2,3-dihydro-benzofuran-3-yl}-acetic acid]",8.22
7,"O=C(O)C[C@@H]1COc2cc(O[C@@H]3CCc4c(Oc5cccc6cccnc56)ccc(F)c43)ccc21 [Example 39, {(S)-6-[(R)-7-Fluoro-4-(Quinolin-8-yloxy)-indan-1-yloxy]-2,3-dihydro-benzofuran-3-yl}-acetic acid]",7.68
8,"O=C(O)C[C@@H]1COc2cc(O[C@@H]3CCc4c(Oc5ccc6ccccc6n5)ccc(F)c43)ccc21 [Example 40, {(S)-6-[(R)-7-Fluoro-4-(Quinolin-2-yloxy)-indan-1-yloxy]-2,3-dihydro-benzofuran-3-yl}-acetic acid]",7.66
9,"N#Cc1ccc(Oc2ccc(F)c3c2CC[C@H]3Oc2ccc3c(c2)OC[C@H]3CC(=O)O)c(C#N)c1 [Example 41, {(S)-6-[(R)-4-(2,4-Dicyano-phenoxy)-7-fluoro-indan-1-yloxy]-2,3-dihydro-benzofuran-3-yl}-acetic acid]",7.77
10,"Cn1cnc2cc(Oc3ccc(F)c4c3CC[C@H]4Oc3ccc4c(c3)OC[C@H]4CC(=O)O)ccc21 [Example 42, {(S)-6-[(R)-7-Fluoro-4-(1-methyl-1H-benzoimidazol-5-yloxy)-indan-1-yloxy]-2,3-dihydro-benzofuran-3-yl}-acetic acid]",6.05
11,"O=C(O)C[C@@H]1COc2cc(O[C@@H]3CCc4c(Oc5ncc6ccccc6n5)ccc(F)c43)ccc21 [Example 43, {(S)-6-[(R)-7-Fluoro-4-(Quinazolin-2-yloxy)-indan-1-yloxy]-2,3-dihydro-benzofuran-3-yl}-acetic acid]",7.47
12,"COc1ccc(Oc2ccc(F)c3c2CC[C@H]3Oc2ccc3c(c2)OC[C@H]3CC(=O)O)nc1 [Example 44, {(S)-6-[(R)-7-Fluoro-4-(5-methoxy-pyrid-2-yloxy)-indan-1-yloxy]-2,3-dihydro-benzofuran-3-yl}-acetic acid]",7.72
13,"Cn1ncc2cc(Oc3ccc(F)c4c3CC[C@H]4Oc3ccc4c(c3)OC[C@H]4CC(=O)O)ccc21 [Example 45, {(S)-6-[(R)-7-Fluoro-4-(1-methyl-1H-indazol-5-yloxy)-indan-1-yloxy]-2,3-dihydro-benzofuran-3-yl}-acetic acid]",8.15
14,"Cn1ncc2ccc(Oc3ccc(F)c4c3CC[C@H]4Oc3ccc4c(c3)OC[C@H]4CC(=O)O)cc21 [Example 46, {(S)-6-[(R)-7-Fluoro-4-(1-methyl-1H-indazol-6-yloxy)-indan-1-yloxy]-2,3-dihydro-benzofuran-3-yl}-acetic acid]",8.52
15,"Cc1cc2c(cnn2C)cc1Oc1ccc(F)c2c1CC[C@H]2Oc1ccc2c(c1)OC[C@H]2CC(=O)O [Example 47, {(S)-6-[(R)-7-Fluoro-4-(1,6-dimethyl-1H-indazol-5-yloxy)-indan-1-yloxy]-2,3-dihydro-benzofuran-3-yl}-acetic acid]",7.59
16,"Cc1nc2cc(Oc3ccc(F)c4c3CC[C@H]4Oc3ccc4c(c3)OC[C@H]4CC(=O)O)ccc2s1 [Example 48, {(S)-6-[(R)-7-Fluoro-4-(2-methyl-benzothiazol-5-yloxy)-indan-1-yloxy]-2,3-dihydro-benzofuran-3-yl}-acetic acid]",8.15
17,"Cc1cc(Oc2ccc(F)c3c2CC[C@H]3Oc2ccc3c(c2)OC[C@H]3CC(=O)O)cc(C)c1C#N [Example 49, {(S)-6-[(R)-4-(4-Cyano-3,5-dimethyl-phenoxy)-7-fluoro-indan-1-yloxy]-2,3-dihydro-benzofuran-3-yl}-acetic acid]",7.92
18,"N#Cc1ccc(Br)cc1Oc1ccc(F)c2c1CC[C@H]2Oc1ccc2c(c1)OC[C@H]2CC(=O)O [Example 50, {(S)-6-[(R)-4-(5-Bromo-2-cyano-phenoxy)-7-fluoro-indan-1-yloxy]-2,3-dihydro-benzofuran-3-yl}-acetic acid]",8.22
19,"N#Cc1cc(F)c(Oc2ccc(F)c3c2CC[C@H]3Oc2ccc3c(c2)OC[C@H]3CC(=O)O)c(F)c1 [Example 51, {(S)-6-[(R)-4-(4-cyano-2,6-difluoro-phenoxy)-7-fluoro-indan-1-yloxy]-2,3-dihydro-benzofuran-3-yl}-acetic acid]",7.74
20,"COc1cc(C#N)ccc1Oc1ccc(F)c2c1CC[C@H]2Oc1ccc2c(c1)OC[C@H]2CC(=O)O [Example 52, {(S)-6-[(R)-4-(4-Cyano-2-methoxy-phenoxy)-7-fluoro-indan-1-yloxy]-2,3-dihydro-benzofuran-3-yl}-acetic acid]",8.22
21,"Cc1c(Oc2ccc(F)c3c2CC[C@H]3Oc2ccc3c(c2)OC[C@H]3CC(=O)O)ccc2c1cnn2C [Example 53, {(S)-6-[(R)-7-Fluoro-4-(1,4-dimethyl-1H-indazol-5-yloxy)-indan-1-yloxy]-2,3-dihydro-benzofuran-3-yl}-acetic acid]",7.16
22,"N#Cc1ccc(F)c(Oc2ccc(F)c3c2CC[C@H]3Oc2ccc3c(c2)OC[C@H]3CC(=O)O)c1 [Example 54, {(S)-6-[(R)-4-(5-Cyano-2-fluoro-phenoxy)-7-fluoro-indan-1-yloxy]-2,3-dihydro-benzofuran-3-yl}-acetic acid]",7.54
23,"Cc1nc2cc(Oc3ccc(F)c4c3CC[C@H]4Oc3ccc4c(c3)OC[C@H]4CC(=O)O)ccc2o1 [Example 55, {(S)-6-[(R)-7-Fluoro-4-(2-methyl-benzoxazol-5-yloxy)-indan-1-yloxy]-2,3-dihydro-benzofuran-3-yl}-acetic acid]",8.22
24,"COc1ccc(Oc2ccc(F)c3c2CC[C@H]3Oc2ccc3c(c2)OC[C@H]3CC(=O)O)c(F)c1 [Example 56, {(S)-6-[(R)-4-(2-Fluoro-4-methoxy-phenoxy)-7-fluoro-indan-1-yloxy]-2,3-dihydro-benzofuran-3-yl}-acetic acid]",8.22
25,"COc1c(F)cc(Oc2ccc(F)c3c2CC[C@H]3Oc2ccc3c(c2)OC[C@H]3CC(=O)O)cc1F [Example 57, {(S)-6-[(R)-4-(3,5-Difluoro-4-methoxy-phenoxy)-7-fluoro-indan-1-yloxy]-2,3-dihydro-benzofuran-3-yl}-acetic acid]",8.15
26,"Cc1nc2ccc(Oc3ccc(F)c4c3CC[C@H]4Oc3ccc4c(c3)OC[C@H]4CC(=O)O)cc2o1 [Example 58, {(S)-6-[(R)-7-Fluoro-4-(2-methyl-benzoxazol-6-yloxy)-indan-1-yloxy]-2,3-dihydro-benzofuran-3-yl}-acetic acid]",8.52
27,"Cc1nc2ccc(Oc3ccc(F)c4c3CC[C@H]4Oc3ccc4c(c3)OC[C@H]4CC(=O)O)cc2s1 [Example 59, {(S)-6-[(R)-7-Fluoro-4-(2-methyl-benzothiazol-6-yloxy)-indan-1-yloxy]-2,3-dihydro-benzofuran-3-yl}-acetic acid]",8.30
28,"Cc1noc2ccc(Oc3ccc(F)c4c3CC[C@H]4Oc3ccc4c(c3)OC[C@H]4CC(=O)O)cc12 [Example 60, {(S)-6-[(R)-7-Fluoro-4-(3-methyl-benzo[d]isoxazol-5-yloxy)-indan-1-yloxy]-2,3-dihydro-benzofuran-3-yl}-acetic acid]",8.52
29,"Cc1noc2cc(Oc3ccc(F)c4c3CC[C@H]4Oc3ccc4c(c3)OC[C@H]4CC(=O)O)ccc12 [Example 61, {(S)-6-[(R)-7-Fluoro-4-(3-methyl-benzo[d]isoxazol-6-yloxy)-indan-1-yloxy]-2,3-dihydro-benzofuran-3-yl}-acetic acid]",8.52

# Source: patent US8815864B2, “Indanyloxydihydrobenzofuranylacetic acids” (Boehringer Ingelheim International GmbH, priority 2012, dated 2014)
